One series deals with T1, mouse DGAT1 (Mus musculus, UniProt Q9Z2A7).
T1 construct: made in house; host or cells: insect cells (High Five, Sf9, Sf21, etc.), baculovirus expression system (Invitrogen)
T1 sequence (Q9Z2A7 1-498): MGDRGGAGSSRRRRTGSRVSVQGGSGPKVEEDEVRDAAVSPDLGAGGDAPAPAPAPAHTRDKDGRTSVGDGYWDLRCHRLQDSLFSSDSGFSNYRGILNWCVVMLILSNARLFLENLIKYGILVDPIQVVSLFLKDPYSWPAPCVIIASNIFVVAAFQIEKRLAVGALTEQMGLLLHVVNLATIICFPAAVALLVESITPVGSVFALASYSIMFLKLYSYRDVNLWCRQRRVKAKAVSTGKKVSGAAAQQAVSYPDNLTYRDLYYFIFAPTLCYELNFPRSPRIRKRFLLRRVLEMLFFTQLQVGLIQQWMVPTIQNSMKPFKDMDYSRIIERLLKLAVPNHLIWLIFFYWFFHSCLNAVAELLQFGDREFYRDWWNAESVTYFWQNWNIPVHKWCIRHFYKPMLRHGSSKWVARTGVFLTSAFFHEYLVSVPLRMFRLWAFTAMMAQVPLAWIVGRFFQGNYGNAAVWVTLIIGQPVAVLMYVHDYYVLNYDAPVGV
The experiment in a line: DGAT1 inhibitory effect test (microsome fraction, [14C]-oleoyl-CoA, triglyceride radioactivity by TLC). The class given is biochemical. The note with it: 0.5 h; concentration of the test compound 0.1 μg/ml; mouse DGAT1 microsomes, 23° C., 30 minutes; read-out: Inhibitory ratio. Summed up:
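Baculovirus-expressed mouse DGAT1 insect-cell microsomes (10 μg) were incubated 30 min at 23 °C, pH 8.0, with 0.5 mM 1,2-dioleoyl-sn-glycerol, 30 μM [14C]-oleoyl-CoA and 0.5% Triton X-100. [14C]-triglyceride was quantified after heptane extraction and TLC. Percent inhibition was taken against vehicle control, with 0-min background subtracted.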

SMILES strings stand for the structures.

Broadly, the melting point is the temperature of the solid-liquid transition.

`COc1ccc(C)cc1NC(=O)Nc1ccc(N2CCN(C(=O)Nc3ccc(C)cc3Cl)CC2)nc1` [Example 147, 4-{5-[3-(2-methoxy-5-methyl-phenyl)-ureido]-pyridin-2-yl}-piperazine-1-carboxylic acid (2-chloro-4-methyl-phenyl)-amide] came in with a melting point of 214 to 215 °C. The inhibition at 0.1 µg/mL at mouse DGAT1 was ≥ 50%.

`COc1ccc(F)cc1NC(=O)Nc1ccc(N2CCN(C(=O)Nc3c(C)cccc3Cl)CC2)nc1` [Example 148, 4-{5-[3-(5-fluoro-2-methoxy-phenyl)-ureido]-pyridin-2-yl}-piperazine-1-carboxylic acid (2-chloro-6-methyl-phenyl)-amide] gave a melting point of 227 to 228 °C. Further, the inhibition at 0.1 µg/mL on mouse DGAT1 was ≥ 50%.

Compound `COc1ccc(F)cc1NC(=O)Nc1ccc(N2CCN(C(=O)Nc3c(C)cccc3C)CC2)nc1` [Example 149, 4-{5-[3-(5-fluoro-2-methoxy-phenyl)-ureido]-pyridin-2-yl}-piperazine-1-carboxylic acid (2,6-dimethyl-phenyl)-amide] displayed a melting point of 226 to 228 °C. In addition, the inhibition at 0.1 µg/mL on mouse DGAT1 is ≥ 50%.

Turning to `COc1ccc(F)cc1NC(=O)Nc1ccc(N2CCN(C(=O)Nc3c(Cl)cccc3Cl)CC2)nc1` [Example 151, 4-{5-[3-(5-fluoro-2-methoxy-phenyl)-ureido]-pyridin-2-yl}-piperazine-1-carboxylic acid (2,6-dichloro-phenyl)-amide], the melting point is 228 °C. Further, on mouse DGAT1, the inhibition at 0.1 µg/mL was ≥ 50%.

The compound `COc1ccc(C)cc1NC(=O)Nc1ccc(N2CCN(C(=O)Nc3c(F)cccc3F)CC2)nc1` [Example 152, 4-{5-[3-(2-methoxy-5-methyl-phenyl)-ureido]-pyridin-2-yl}-piperazine-1-carboxylic acid (2,6-difluoro-phenyl)-amide] came in with a melting point of 237 to 239 °C. In addition, the inhibition at 0.1 µg/mL at mouse DGAT1 was ≥ 50%.

The compound `COc1ccc(NC(=O)N2CCN(c3ccc(NC(=O)Nc4cc(F)ccc4OC)cn3)CC2)c(C)c1` [Example 153, 4-{5-[3-(5-fluoro-2-methoxy-phenyl)-ureido]-pyridin-2-yl}-piperazine-1-carboxylic acid (4-methoxy-2-methyl-phenyl)-amide] came in with a melting point of 212 to 214 °C. Besides, at mouse DGAT1, the inhibition at 0.1 µg/mL is ≥ 50%.

Compound `COc1ccc(F)cc1NC(=O)Nc1ccc(N2CCN(C(=O)Nc3ccc(C)cc3Cl)CC2)nc1` [Example 154, 4-{5-[3-(5-fluoro-2-methoxy-phenyl)-ureido]-pyridin-2-yl}-piperazine-1-carboxylic acid (2-chloro-4-methyl-phenyl)-amide] had a melting point of 217 to 218 °C. Moreover, the inhibition at 0.1 µg/mL on mouse DGAT1 was ≥ 50%.

In turn, `COc1ccc(C)cc1NC(=O)Nc1ccc(N2CCN(C(=O)Nc3ccc(F)cc3C(F)(F)F)CC2)nc1` [Example 155, 4-{5-[3-(2-methoxy-5-methyl-phenyl)-ureido]-pyridin-2-yl}-piperazine-1-carboxylic acid (4-fluoro-2-trifluoromethyl-phenyl)-amide] gave a melting point of 186 to 187 °C. For the same compound, the inhibition at 0.1 µg/mL on mouse DGAT1 was ≥ 50%.

`Cc1cccc(Cl)c1NC(=O)N1CCN(c2ccc(NC(=O)Nc3ccc(N(C)C)cc3)cc2)CC1` [Example 156, 4-{4-[3-(4-dimethylamino-phenyl)-ureido]-phenyl}-piperazine-1-carboxylic acid (2-chloro-6-methyl-phenyl)-amide] registered a melting point of 214 to 217 °C. For the same compound, the inhibition at 0.1 µg/mL on mouse DGAT1 is ≥ 50%.

`CCC(C)c1ccccc1NC(=O)Nc1ccc(N2CCN(C(=O)Nc3c(C)cccc3Cl)CC2)cc1` (centres unmarked) [Example 157, 4-{4-[3-(2-sec-butyl-phenyl)-ureido]-phenyl}-piperazine-1-carboxylic acid (2-chloro-6-methyl-phenyl)-amide] had a melting point of 232 to 234 °C. At mouse DGAT1, the inhibition at 0.1 µg/mL was ≥ 50%.

For the compound `Cc1cccc(Cl)c1NC(=O)N1CCN(c2ccc(NC(=O)Nc3ccc(C(C)C)cc3)cc2)CC1` [Example 158, 4-{4-[3-(4-isopropyl-phenyl)-ureido]-phenyl}-piperazine-1-carboxylic acid (2-chloro-6-methyl-phenyl)-amide], the melting point was 278 to 280 °C. In addition, the inhibition at 0.1 µg/mL on mouse DGAT1 was ≥ 50%.

For `CCOc1ccc(NC(=O)Nc2ccc(N3CCN(C(=O)Nc4c(C)cccc4Cl)CC3)cc2)cc1` [Example 159, 4-{4-[3-(4-ethoxy-phenyl)-ureido]-phenyl}-piperazine-1-carboxylic acid (2-chloro-6-methyl-phenyl)-amide], the melting point is 229 to 230 °C. For the same compound, at mouse DGAT1, the inhibition at 0.1 µg/mL is ≥ 50%.

Take `CCc1ccc(NC(=O)Nc2ccc(N3CCN(C(=O)Nc4c(C)cccc4Cl)CC3)cc2)cc1` [Example 160, 4-{4-[3-(4-ethyl-phenyl)-ureido]-phenyl}-piperazine-1-carboxylic acid (2-chloro-6-methyl-phenyl)-amide]: the melting point was in the range of 239 to 241 °C. Also, the inhibition at 0.1 µg/mL on mouse DGAT1 is ≥ 50%.

In turn, `CCC(C)c1ccc(NC(=O)Nc2ccc(N3CCN(C(=O)Nc4c(C)cccc4Cl)CC3)cc2)cc1` (centres unmarked) [Example 161, 4-{4-[3-(4-sec-butyl-phenyl)-ureido]-phenyl}-piperazine-1-carboxylic acid (2-chloro-6-methyl-phenyl)-amide] gave a melting point of 259 to 261 °C. In addition, the inhibition at 0.1 µg/mL at mouse DGAT1 was ≥ 50%.

With `CCCCOc1ccc(NC(=O)Nc2ccc(N3CCN(C(=O)Nc4c(C)cccc4Cl)CC3)cc2)cc1` [Example 162, 4-{4-[3-(4-butoxy-phenyl)-ureido]-phenyl}-piperazine-1-carboxylic acid (2-chloro-6-methyl-phenyl)-amide], the melting point lay in the range of 218 to 219 °C. Moreover, at mouse DGAT1, the inhibition at 0.1 µg/mL was ≥ 50%.

The compound `Cc1cccc(Cl)c1NC(=O)N1CCN(c2ccc(NC(=O)Nc3cc(C(F)(F)F)ccc3F)cc2)CC1` [Example 163, 4-{4-[3-(2-fluoro-5-trifluoromethyl-phenyl)-ureido]-phenyl}-piperazine-1-carboxylic acid (2-chloro-6-methyl-phenyl)-amide] returned a melting point of 228 to 230 °C. Besides, the inhibition at 0.1 µg/mL at mouse DGAT1 is ≥ 50%.

Compound `Cc1cccc(Cl)c1NC(=O)N1CCN(c2ccc(NC(=O)Nc3cc(C(F)(F)F)ccc3Cl)cc2)CC1` [Example 164, 4-{4-[3-(2-chloro-5-trifluoromethyl-phenyl)-ureido]-phenyl}-piperazine-1-carboxylic acid (2-chloro-6-methyl-phenyl)-amide] registered a melting point of 249 to 251 °C. On mouse DGAT1, the inhibition at 0.1 µg/mL was ≥ 50%.

For the compound `Cc1ccc(Cl)c(NC(=O)Nc2ccc(N3CCN(C(=O)Nc4c(C)cccc4Cl)CC3)cc2)c1` [Example 165, 4-{4-[3-(2-chloro-5-methyl-phenyl)-ureido]-phenyl}-piperazine-1-carboxylic acid (2-chloro-6-methyl-phenyl)-amide], the melting point is > 260 °C (dec.). Further, on mouse DGAT1, the inhibition at 0.1 µg/mL was ≥ 50%.

Turning to `COc1ccc(C)cc1NC(=O)Nc1ccc(N2CCN(C(=O)Nc3ccc(N)cc3C(F)(F)F)CC2)cc1` [Example 166, 4-{4-[3-(2-methoxy-5-methyl-phenyl)-ureido]-phenyl}-piperazine-1-carboxylic acid (4-amino-2-trifluoromethyl-phenyl)-amide], the melting point was in the range of 244 to 246 °C. In addition, the inhibition at 0.1 µg/mL at mouse DGAT1 is ≥ 50%.

The record behind these values is patent publication US20070249620A1, “Urea Derivative” (priority 2004, published 2007).
